Assay results published in patent US6686380B2, “Treatment of refractory tumors using epothilone derivatives” (Bristol-Myers Squibb Company, priority 2001, dated 2004).

Assays:
[1] = tested on: tubulin isolated from calf brain; assay: Tubulin polymerization assay; type: biochemical; conditions: based on EC0.01
Experimental: Tubulin polymerization assay: the potency required for the test compound and paclitaxel to polymerize tubulin isolated from calf brain was evaluated by published techniques. The effective concentration (EC0.01) was defined as the interpolated concentration capable of inducing an initial slope of optical density (OD) of 0.01 OD/minute rate and is calculated using the formula: EC0.01=concentration/slope. EC0.01 values are expressed as the mean with standard deviation obtained from 3 different concentrations.

[2] = tested on: HCT116/VM46, A2780Tax and Pat-7 cell lines; assay: Cytotoxicity against cell lines that had developed resistance to paclitaxel (FIG. 2); type: cell-based, human
Experimental: (§1) The concentration needed to kill 90% of clonogenic cancer cells (IC90) was determined.

[3] = tested on: Pat-7, A2780Tax, HCT116/VM46, Pat-21 and M5076 tumors; assay: In vivo antitumor testing, paclitaxel-resistant tumors; parameters: species or system mice; conditions: all five paclitaxel-resistant tumors (four human and one murine)
Source text: (§2) In Vivo Antitumor Testing: The following human tumors were used: ovarian carcinoma A2780, A2780Tax and Pat-7 (established from an ovarian tumor biopsy from a patient who had developed resistance to paclitaxel); HCT116, HCT116/VM46 and LS174T colon carcinomas, Pat-21 breast carcinoma, and Pat-26 pancreatic carcinoma (from a liver metastasis biopsy). Pat-7, Pat-21 ad Pat-26 xenografts were established initially from primary tumor biopsies directly as xenotransplants grown in whole-body irradiated nude mice without any intervening in vitro cell culturing steps. The innately paclitaxel-insensitive murine fibrosarcoma M5076 was also employed. The human tumor xenografts were maintained in Balb/c nu/nu nude mice. M5076 was maintained in C57BL/6 mice. Tumors were propagated as subcutaneous transplants in the appropriate mouse strain using tumor fragments obtained from donor mice. […]
(§3) The required number of animals needed to detect a meaningful response (6-8) were pooled at the start of the experiment and each was given a subcutaneous implant of a tumor fragment (˜50 mg) with a 13-gauge trocar. […] For treatment of animals with advanced-stage disease, tumors were allowed to grow to the pre-determined size window (tumors outside the range were excluded) and animals were evenly distributed to various treatment and control groups. […]

clonogenic tumor cells = assay: Clonogenic cell colony-formation assay (IC90); type: cell-based; conditions: clonogenic cytotoxicity assay; read-out: concentration needed to kill 90% of clonogenic cancer cells (IC90)
Experimental: Clonogenic cell colony-formation assay: the potency required for the test compound and paclitaxel to kill clonogenic tumor cells (cells that are able to divide indefinitely to form a colony) in vitro was evaluated by a colony formation assay. The concentration needed to kill 90% of clonogenic cancer cells (IC90) was determined.

[4] = tested on: HCT116 and A2780 tumor cell lines; assay: Clonogenic cell colony-formation assay, paclitaxel-sensitive lines; type: cell-based, human; conditions: two sensitive tumor cell lines (HCT116 and A2780)
Experimental: as §1

[5] = tested on: A2780 human ovarian carcinoma; HCT116 and LS 174T human colon carcinoma; assay: In vivo antitumor testing, paclitaxel-sensitive xenografts; parameters: species or system nude mice; conditions: three paclitaxel-sensitive human tumor xenografts
Source text: as §2, §3

[6] = tested on: Pat-7 human ovarian carcinoma; assay: In vivo antitumor testing, Pat-7 xenograft; parameters: species or system nude mice
Source text: In Vivo Antitumor Testing: The following human tumors were used: ovarian carcinoma A2780, A2780Tax and Pat-7 (established from an ovarian tumor biopsy from a patient who had developed resistance to paclitaxel); HCT116, HCT116/VM46 and LS174T colon carcinomas, Pat-21 breast carcinoma, and Pat-26 pancreatic carcinoma (from a liver metastasis biopsy). Pat-7, Pat-21 ad Pat-26 xenografts were established initially from primary tumor biopsies directly as xenotransplants grown in whole-body irradiated nude mice without any intervening in vitro cell culturing steps. The innately paclitaxel-insensitive murine fibrosarcoma M5076 was also employed. The human tumor xenografts were maintained in Balb/c nu/nu nude mice. M5076 was maintained in C57BL/6 mice. Tumors were propagated as subcutaneous transplants in the appropriate mouse strain using tumor fragments obtained from donor mice. Tumor passage occurred biweekly for murine tumors and approximately every two to eight weeks for the various human tumor lines. With regard to efficacy testing, M5076 tumors were implanted in (C57B1/6×DBA/2)F1 hybrid mice, and human tumors were implanted in nude mice. All tumor implants for efficacy testing were subcutaneous (sc).
The required number of animals needed to detect a meaningful response (6-8) were pooled at the start of the experiment and each was given a subcutaneous implant of a tumor fragment (˜50 mg) with a 13-gauge trocar. For treatment of early-stage tumors, the animals were again pooled before distribution to the various treatment and control groups. For treatment of animals with advanced-stage disease, tumors were allowed to grow to the pre-determined size window (tumors outside the range were excluded) and animals were evenly distributed to various treatment and control groups. Treatment of each animal was based on individual body weight. Treated animals were checked daily for treatment related toxicity/mortality. Each group of animals was weighed before the initiation of treatment (Wt1) and then again following the last treatment dose (Wt2).
Tumor weights (mg) were estimated from the formula: […]
The maximum tolerated dose (MTD) is defined as the dose level immediately above which excessive toxicity (i.e. more than one death) occurred. […] Activity is described at the OD.
Tumor response end-point was expressed in terms of tumor growth delay (T-C value), defined as the difference in time (days) required for the treated tumors (T) to reach a predetermined target size compared to those of the control group (C).

human tumor xenografts [7] = assay: Antitumor activity by oral route of administration; type: in vivo, mice or rats; conditions: two different human tumor xenografts
Experimental: (§4) For administration to rodents, the subject compound was administered in either 1:9 ethanol/water, or 1:1:8 Cremophor®/ethanol/water. Final dilution for parenteral administration was made with water one hour before administration. Final dilution for oral administration was made with 0.25 M sodium phosphate buffer. Paclitaxel was dissolved in a 50/50 mixture of ethanol and Cremophor® and maintained at 4° C. Final dilution was made immediately prior to injection to prevent undesirable precipitation. Tumor cell lines HCT 116 human carcinoma and HCT116/V/M46 cells were maintained on McCoy's medium and 10% heat-inactivated fetal bovine serum. A2780 human ovarian carcinoma cells and A2780Tax cells were maintained in IMEM and 10% heat-inactivated fetal bovine serum. All other cell lines were maintained in RPM11640 medium with 10% heat-inactivated fetal bovine serum.

[8] = tested on: panel of tumor cell lines; assay: In vitro cytotoxicity, tetrazolium-based colorimetric assay; conditions: read-out: median cytotoxic concentration (IC50 values); 21 cell lines tested; 72 h incubation; FIG. 1
Experimental: as §4
The in vivo cytotoxicity was assessed in tumor cells by a tetrazolium-based colorimetric assay at 492 nm. The cells were seeded 24 h prior to drug addition. The reagents were added following a 72 h incubation with serially diluted test compound. Measurements were taken after a further three hours incubation. The results are expressed as median cytotoxic concentration (IC50 values).

human tumor xenografts [9] = conditions: general statement; cited from earlier work

Compound	tubulin polymerization potency relative to paclitaxel [1]	retention of cytotoxic potency in resistant versus sensitive lines ([2]; HCT116/VM46, A2780Tax and Pat-7 compared to the sensitive lines)	cytotoxicity compared with paclitaxel ([2]; three cell lines that had developed resistance to paclitaxel, FIG. 2)	antitumor efficacy compared with paclitaxel [3]	IC90 (clonogenic tumor cells) [nM]	potency in killing clonogenic cells compared with paclitaxel [4]	antitumor activity compared with paclitaxel [5]	LCK ([6]; PO, every 2 days x 5, at MTD, pH 8.0 buffered vehicle, first of two experiments) [LCK]	LCK ([6]; PO, every 2 days x 5, at MTD, pH 8.0 buffered vehicle, second of two experiments) [LCK]	oral antitumor activity ([6]; PO, every 2 days x 5 schedule)	antitumor activity given orally compared with IV administration (human tumor xenografts [7])	IC50 [8] [nM]	LCK ([6]; IV, optimal dose and schedule, concomitantly tested, first of two experiments) [LCK]	LCK ([6]; IV, optimal dose and schedule, concomitantly tested, second of two experiments) [LCK]	activity when administered by the oral route (human tumor xenografts [9])
C/C(=C\c1csc(C)n1)[C@@H]1CC2O[C@]2(C)CCC[C@H](C)[C@H](O)[C@@H](C)C(=O)C(C)(C)[C@@H](O)CC(=O)N1 (relative stereo) [test compound, [1 S-[1R*,3R*(E),7R*,10S*,11R*,12R*,16S*]]-7,11-1-Dihydroxy-8,8,10,12,16-pentamethyl-3-[1-methyl-2-(2-methyl-4-thiazolyl)ethenyl]-4-aza-17-oxabicyclo[14.1.0]heptadecane-5,9-dione]	about 2.5 fold	almost completely retaining its cytotoxic potency	far better than paclitaxel	more efficacious than paclitaxel	~7.5	similarly potent	equivalent to paclitaxel	3.1	2.5	highly active orally	equivalent to that produced by IV drug administration	1.4 to 34.5	–	–	–
CC(=O)O[C@H]1C(=O)[C@@]2(C)[C@H]([C@H](OC(=O)c3ccccc3)[C@]3(O)C[C@H](OC(=O)[C@H](O)[C@@H](NC(=O)c4ccccc4)c4ccccc4)C(C)=C1C3(C)C)[C@]1(OC(C)=O)CO[C@@H]1C[C@@H]2O [paclitaxel, reference compound]	–	–	–	–	–	–	–	–	–	–	–	–	1.3	1.2	typically inactive
